This is an account of results in patent US20240254138A1, “TRICYCLIC PYRIMIDINES AS CYCLIN-DEPENDENT KINASE 7 (CDK7) INHIBITORS” (JANSSEN PHARMACEUTICA NV, priority 2021, published 2024).

Experiment [1] has as its system RNA Polymerase II Serine 5 phosphorylation (Rpb1 CTD, downstream substrate of CDK7) in A549 cells. The experiment in a line: Imaging-based cellular RNA PolII Ser5 phosphorylation assay in A549 cells. Type of experiment: cell-based, human. The conditions noted are these: Homo sapiens, A549, A549 cells, wild-type CDK7; RNA PolII Ser5 phosphorylation; averaged over all measurements; read-out: CDK7_A549 Wild-type CDK7 (pIC50) (converted). The gist of the method: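 A549 cells, seeded 1000/well in DMEM with 1% FBS and cultured 20 h, were treated with compound for 3 h at 37 °C. Ser5-phospho-Rpb1 CTD detected by immunofluorescence imaging after fixation and methanol permeabilization; IC50 from curve fit normalized to DMSO and 10 μM reference-compound controls.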

Experiment [2] has as its system RNA Polymerase II Serine 5 phosphorylation in A549 cells overexpressing CDK7-mutant (C312S). The experiment in a line: Imaging-based cellular RNA PolII Ser5 phosphorylation assay in A549 cells overexpressing CDK7-mutant (C312S). The class given is cell-based, human. The conditions noted are these: Homo sapiens, A549, A549 cells overexpressing CDK7-mutant (C312S); RNA PolII Ser5 phosphorylation; averaged over all measurements; read-out: CDK7_A549 mutant hCDK7(pIC50) (converted). The gist of the method:
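A549 cells overexpressing CDK7 C312S (with endogenous wild-type CDK7) were treated with compound for 3 h at 37 °C in 1% FBS medium. Phospho-Rpb1 CTD Ser5 was immunostained after fixation and imaged. IC50 came from curve fit of % control, normalised to DMSO and 10 μM reference-compound controls.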

The target of experiment [3] is CDK7/cyclinH/MAT1 trimeric complex (Homo sapiens, UniProt P50613). The experiment in a line: In vitro CDK7 assay, potency of irreversible covalent inhibitors (kinact/KI), coupled PK/LDH ADP readout at 340 nm. The conditions noted are these: for Ki: CDK7 (20 nM enz.) (KI, μM), 20 nM enzyme; for kinact: read-out: CDK7 (20 nM enz.) (kinact, s^−1), 20 nM enzyme.
Chain of CDK7/cyclinH/MAT1 trimeric complex (P50613 whole entry): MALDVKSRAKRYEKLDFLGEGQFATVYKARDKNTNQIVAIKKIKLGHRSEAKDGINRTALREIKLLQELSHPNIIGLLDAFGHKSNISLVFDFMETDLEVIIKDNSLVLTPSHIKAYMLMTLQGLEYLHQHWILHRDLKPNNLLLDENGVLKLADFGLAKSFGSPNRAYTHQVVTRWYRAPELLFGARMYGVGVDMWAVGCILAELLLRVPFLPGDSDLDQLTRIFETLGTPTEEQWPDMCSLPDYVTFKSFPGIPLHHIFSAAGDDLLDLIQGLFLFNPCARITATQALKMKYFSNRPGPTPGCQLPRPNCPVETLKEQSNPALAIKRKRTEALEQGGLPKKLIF
Chain of CDK7/cyclinH/MAT1 trimeric complex (P51946 whole entry partner): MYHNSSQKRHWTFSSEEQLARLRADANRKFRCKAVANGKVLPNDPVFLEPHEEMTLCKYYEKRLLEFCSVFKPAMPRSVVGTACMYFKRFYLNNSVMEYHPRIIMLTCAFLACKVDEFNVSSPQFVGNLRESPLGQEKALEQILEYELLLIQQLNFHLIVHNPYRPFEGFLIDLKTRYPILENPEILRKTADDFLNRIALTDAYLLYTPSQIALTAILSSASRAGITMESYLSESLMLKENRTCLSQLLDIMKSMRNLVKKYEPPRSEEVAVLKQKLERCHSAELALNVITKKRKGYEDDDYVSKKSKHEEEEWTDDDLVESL
Chain of CDK7/cyclinH/MAT1 trimeric complex (P51948 whole entry partner): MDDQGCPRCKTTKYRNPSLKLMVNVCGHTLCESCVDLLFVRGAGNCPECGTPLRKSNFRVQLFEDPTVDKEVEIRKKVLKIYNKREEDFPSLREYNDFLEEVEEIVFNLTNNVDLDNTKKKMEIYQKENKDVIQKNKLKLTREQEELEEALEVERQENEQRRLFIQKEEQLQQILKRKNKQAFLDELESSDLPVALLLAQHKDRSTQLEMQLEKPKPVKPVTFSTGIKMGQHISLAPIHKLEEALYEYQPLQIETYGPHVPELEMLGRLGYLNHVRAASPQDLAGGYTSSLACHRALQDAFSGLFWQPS
The mark [4] stands for this setting: read-out: CDK7 (20 nM enz.) (kinact/KI, M^−1*s^−1), 20 nM enzyme.
[5] abbreviates: read-out: CDK7 (20 nM enz.) (kobs/[I], M^−1*s^−1), 20 nM enzyme.

Molecules are shown by their SMILES. Where two headings read alike, the source gives them in different places.

Take `C=CC(=O)N1CC(N2CCC(c3cc4c(cn3)O[C@@H](C)c3c(N5CCOCC5)ccnc3N4)CC2)C1` (single isomer, unassigned) [Compound 261]: the IC50 in experiment [1] is 955 nM. Besides, the IC50 in experiment [2] was more than 3980 nM. For the same compound, in experiment [3], the Ki came out at 1.11 µM and the maximal inactivation rate constant (kinact) stood at 3.89e-05 s⁻¹. The kinact/KI in experiment [3] (setting [4]) came out at 34.9 M⁻¹ s⁻¹.
On the same counts, the results for `C=CC(=O)N1CC(N2CC(c3cc4c(c(C)n3)O[C@H](C)c3c(N5CCOCC5)ccnc3N4)C2)C1` (single isomer, unassigned) [Compound 270] are 117 nM, more than 10000 nM, 0.0518 µM, 3.7e-05 s⁻¹ and 714 M⁻¹ s⁻¹.
For `CC#CC(=O)N1CC[C@H](N2CC(c3cc(C)c4c(c3)Nc3nccc(N5CCOCC5)c3[C@H](C)O4)C2)C1` (single isomer, unassigned) [Compound 281], in that order: 692 nM, more than 10000 nM, 0.683 µM, 4.07e-05 s⁻¹ and 59.6 M⁻¹ s⁻¹.
In the case of `C=CC(=O)N1CC[C@@H](N2CCC(c3cc4c(c(C)n3)OCc3c(N5CCOCC5)ccnc3N4)CC2)C1` (single isomer, unassigned) [Compound 282], the IC50 in experiment [1] was 30.9 nM. In addition, the IC50 in experiment [2] is more than 10000 nM. Besides, in experiment [3], the Ki worked out at 0.0397 µM and the inactivation rate constant (kinact) was determined as 5.01e-05 s⁻¹. In experiment [3] (setting [4]), the kinact/KI came to 1260 M⁻¹ s⁻¹.
For `C=CC(=O)N1CC[C@H](N2CCC(c3cc4c(c(C)n3)OCc3c(N5CCOCC5)ccnc3N4)CC2)C1` (single isomer, unassigned) [Compound 283], in that order: 69.2 nM, more than 10000 nM, 0.187 µM, 7.12e-05 s⁻¹ and 381 M⁻¹ s⁻¹.
On the same counts, the results for `CC#CC(=O)N1CC[C@@H](N2CC(c3cc(C)c4c(c3)Nc3nccc(N5CCOCC5)c3[C@H](C)O4)C2)C1` (single isomer, unassigned) [Compound 284] are 2040 nM, more than 10000 nM, 2 µM, 3.49e-05 s⁻¹ and 17.4 M⁻¹ s⁻¹.
For the compound `C=CC(=O)N1CC[C@@H](N2CC(c3cc4c(c(C5CC5)n3)OCc3c(-c5cnn(C)c5)ccnc3N4)C2)C1` (single isomer, unassigned) [Compound 286], the IC50 in experiment [1] was 126 nM. The IC50 in experiment [2] is more than 10000 nM. Moreover, in experiment [3], the Ki amounted to 0.146 µM and the inactivation rate constant (kinact) is 4.74e-05 s⁻¹. Moreover, in experiment [3] (setting [4]), the kinact/KI came out at 324 M⁻¹ s⁻¹.
On the same counts, the results for `C=CC(=O)N1CC[C@H](N2CC(c3cc4c(c(C5CC5)n3)OCc3c(-c5cnn(C)c5)ccnc3N4)C2)C1` (single isomer, unassigned) [Compound 287] are 129 nM, more than 10000 nM, 0.188 µM, 0.000117 s⁻¹ and 622 M⁻¹ s⁻¹.
For `CC#CC(=O)N1CC[C@H](N2CC(c3cc(C)c4c(c3)Nc3nccc(N5CCOCC5)c3[C@@H](C)O4)C2)C1` (single isomer, unassigned) [Compound 288], in that order: 129 nM, 10000 nM, 0.0411 µM, 2.54e-05 s⁻¹ and 619 M⁻¹ s⁻¹.
For `CC#CC(=O)N1CC[C@@H](N2CC(c3cc(C)c4c(c3)Nc3nccc(N5CCOCC5)c3[C@@H](C)O4)C2)C1` (single isomer, unassigned) [Compound 289], in that order: 123 nM, more than 10000 nM, 0.0628 µM, 2.54e-05 s⁻¹ and 404 M⁻¹ s⁻¹.
Take `C=CC(=O)N1CC(N2CC(c3cc(C#N)c4c(c3)Nc3nccc(C5CCOCC5)c3[C@H](C)O4)C2)C1` (single isomer, unassigned) [Compound 291]: the figures for the IC50 in experiment [1] and in experiment [2] were 1230 nM and more than 10000 nM, respectively. In addition, in experiment [3] (setting [5]), the kinact/KI was 26.5 M⁻¹ s⁻¹.
On the same counts, the results for `C=CC(=O)N1CC(N2CC(c3cc(C#N)c4c(c3)Nc3nccc(C5CCOCC5)c3[C@@H](C)O4)C2)C1` (single isomer, unassigned) [Compound 292] are 56.2 nM, 8320 nM and 802 M⁻¹ s⁻¹.
Consider `C=CC(=O)N1CC(N2CC(c3cc4c(cn3)O[C@H](C)c3c(-c5cnn(C)c5)ccnc3N4)C2)C1` (single isomer, unassigned) [Compound 295], for which, in experiment [1], the IC50 is 178 nM. In addition, the IC50 in experiment [2] was approximately 8320 nM. In addition, in experiment [3], the Ki was found to be 0.0688 µM and the kinact is 5.48e-05 s⁻¹. For the same compound, in experiment [3] (setting [4]), the kinact/KI was found to be 796 M⁻¹ s⁻¹.
On the same counts, the results for `CC#CC(=O)N1CC[C@@H](N2CC(c3cc(C)c4c(c3)Nc3nccc(C5CCOCC5)c3CO4)C2)C1` (single isomer, unassigned) [Compound 296] are 224 nM, more than 10000 nM, 0.067 µM, 3.52e-05 s⁻¹ and 526 M⁻¹ s⁻¹.
In the case of `COC(=O)/C=C/C(=O)N1CC[C@H](N2CCC(c3cc4c(c(C)n3)OCc3c(-c5cnn(C)c5)ccnc3N4)CC2)C1` (single isomer, unassigned) [Compound 297], the IC50 in experiment [1] is approximately 23.4 nM; in experiment [2] it was more than 10000 nM. Besides, in experiment [3] (setting [5]), the kinact/KI was 1240 M⁻¹ s⁻¹.
In the case of `CC#CC(=O)N1CC[C@@H](N2CCC(c3cc4c(c(C)n3)OCc3c(-c5cnn(C)c5)ccnc3N4)CC2)C1` (single isomer, unassigned) [Compound 299], the IC50 in experiment [1] was 87.1 nM. Further, in experiment [2], the IC50 is more than 10000 nM. In addition, in experiment [3], the Ki was found to be 0.0959 µM and the inactivation rate constant (kinact) was 5.9e-05 s⁻¹. Further, the kinact/KI in experiment [3] (setting [4]) came to 615 M⁻¹ s⁻¹.
Turning to `COC(=O)/C=C/C(=O)N1CC[C@@H](N2CCC(c3cc4c(c(C)n3)OCc3c(-c5cnn(C)c5)ccnc3N4)CC2)C1` (single isomer, unassigned) [Compound 301], the results for the IC50 in experiment [1] and in experiment [2] were 24 nM and more than 10000 nM, respectively. The kinact/KI in experiment [3] (setting [5]) stood at 2790 M⁻¹ s⁻¹.
With `CC#CC(=O)N1CC[C@H](N2CCC(c3cc4c(c(C)n3)OCc3c(-c5cnn(C)c5)ccnc3N4)CC2)C1` (single isomer, unassigned) [Compound 304], in experiment [1], the IC50 was 129 nM. Further, in experiment [2], the IC50 is more than 10000 nM. In addition, in experiment [3], the Ki was found to be 0.111 µM and the maximal inactivation rate constant (kinact) turned out to be 4.09e-05 s⁻¹. Besides, in experiment [3] (setting [4]), the kinact/KI was found to be 369 M⁻¹ s⁻¹.
On the same counts, the results for `CC#CC(=O)N1CC[C@H](N2CC(c3cc(C)c4c(c3)Nc3nccc(C5CCOCC5)c3CO4)C2)C1` (single isomer, unassigned) [Compound 305] are 240 nM, more than 10000 nM, 0.0839 µM, 2.97e-05 s⁻¹ and 354 M⁻¹ s⁻¹.
On the same counts, the results for `CC#CC(=O)N1CC(N2CC[C@@H](c3cc4c(c(C)n3)O[C@H](C)c3c(N5CCOCC5)ccnc3N4)C2)C1` (single isomer, unassigned) [Compound 308] are 447 nM, more than 10000 nM, 0.434 µM, 1.51e-05 s⁻¹ and 34.8 M⁻¹ s⁻¹.
On the same counts, the results for `CC#CC(=O)N1CC[C@H](N2CCC(c3cc4c(c(C)n3)OCc3c(N5CCOCC5)ccnc3N4)CC2)C1` (single isomer, unassigned) [Compound 309] are 129 nM, more than 10000 nM, 0.277 µM, 5.45e-05 s⁻¹ and 197 M⁻¹ s⁻¹.
Consider `CC#CC(=O)N1CC[C@@H](N2CCC(c3cc4c(c(C)n3)OCc3c(N5CCOCC5)ccnc3N4)CC2)C1` (single isomer, unassigned) [Compound 310], for which, in experiment [1], the IC50 was 75.9 nM. In experiment [2], the IC50 was more than 10000 nM. Besides, in experiment [3], the Ki stood at 0.115 µM and the inactivation rate constant (kinact) was found to be 6.29e-05 s⁻¹. Also, the kinact/KI in experiment [3] (setting [4]) was 547 M⁻¹ s⁻¹.
On the same counts, the results for `C=CC(=O)N1CC(N2CC[C@@H](c3cc4c(c(C)n3)O[C@H](C)c3c(N5CCOCC5)ccnc3N4)C2)C1` (single isomer, unassigned) [Compound 319] are 77.6 nM, more than 10000 nM, 0.047 µM, 6.15e-05 s⁻¹ and 1310 M⁻¹ s⁻¹.
For `C=CC(=O)N1CC[C@@H](N2CC(c3cc4c(c(C5CC5)n3)OCc3c(N5CCOCC5)ccnc3N4)C2)C1` (single isomer, unassigned) [Compound 323], in that order: 83.2 nM, 7940 nM, 0.0217 µM, 6.41e-05 s⁻¹ and 2950 M⁻¹ s⁻¹.
In the case of `C=CC(=O)N1CC[C@H](N2CC(c3cc4c(c(C5CC5)n3)OCc3c(N5CCOCC5)ccnc3N4)C2)C1` (single isomer, unassigned) [Compound 326], the IC50 is 89.1 nM in experiment [1] and 7760 nM in experiment [2]. The kinact/KI in experiment [3] (setting [5]) was determined as 939 M⁻¹ s⁻¹.

One may read the kinact as the rate constant of inactivation at saturating inhibitor.
